ChEMBL document CHEMBL1201862, “PubChem BioAssay data set” (2004)
The source made the active and inactive calls.

Legend:
Hexokinase HKDC1 = target: T1, Hexokinase HKDC1 (Homo sapiens, UniProt Q2TB90); experiment: SAR analysis of small molecule inhibitors of hexokinase domain containing I (HKDC1). [Related pubchem assays (depositor defined):AID493160, AID493190]; type: functional
T1 sequence (Q2TB90 whole entry): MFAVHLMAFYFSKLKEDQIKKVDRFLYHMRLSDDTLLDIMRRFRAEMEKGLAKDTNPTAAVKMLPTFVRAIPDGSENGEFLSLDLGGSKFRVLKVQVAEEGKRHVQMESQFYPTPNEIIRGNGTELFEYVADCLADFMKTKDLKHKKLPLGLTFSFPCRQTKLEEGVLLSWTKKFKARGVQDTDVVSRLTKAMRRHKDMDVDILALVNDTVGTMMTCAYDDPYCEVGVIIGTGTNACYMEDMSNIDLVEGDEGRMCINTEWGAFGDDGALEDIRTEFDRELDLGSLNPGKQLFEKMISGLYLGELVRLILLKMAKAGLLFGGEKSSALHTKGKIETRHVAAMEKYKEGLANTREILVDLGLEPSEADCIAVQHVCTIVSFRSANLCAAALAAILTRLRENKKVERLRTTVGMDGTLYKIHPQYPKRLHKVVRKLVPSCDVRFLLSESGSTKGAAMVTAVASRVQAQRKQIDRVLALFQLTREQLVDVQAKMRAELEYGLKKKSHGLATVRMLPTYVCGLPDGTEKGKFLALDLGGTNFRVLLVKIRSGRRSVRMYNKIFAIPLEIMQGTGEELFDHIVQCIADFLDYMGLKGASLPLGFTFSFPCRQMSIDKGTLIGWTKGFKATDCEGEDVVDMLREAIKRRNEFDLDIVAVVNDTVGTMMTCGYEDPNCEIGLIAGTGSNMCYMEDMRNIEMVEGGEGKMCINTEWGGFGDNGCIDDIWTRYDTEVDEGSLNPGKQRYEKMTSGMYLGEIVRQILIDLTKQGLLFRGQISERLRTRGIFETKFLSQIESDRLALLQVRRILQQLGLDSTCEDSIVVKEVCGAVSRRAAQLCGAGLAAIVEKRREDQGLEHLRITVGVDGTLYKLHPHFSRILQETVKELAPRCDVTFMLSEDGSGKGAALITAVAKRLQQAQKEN

Hexokinase-1 = Hexokinase-1 (Homo sapiens, UniProt P19367); experiment: SAR analysis of small molecule inhibitors of hexokinase domain containing I (HKDC1) in the hexokinase 1 selectivity assay. [Related pubchem assays (depositor defined):AID493160, AID493190]; type: functional
Chain of Hexokinase-1 (P19367 whole entry, the tested form may be a part): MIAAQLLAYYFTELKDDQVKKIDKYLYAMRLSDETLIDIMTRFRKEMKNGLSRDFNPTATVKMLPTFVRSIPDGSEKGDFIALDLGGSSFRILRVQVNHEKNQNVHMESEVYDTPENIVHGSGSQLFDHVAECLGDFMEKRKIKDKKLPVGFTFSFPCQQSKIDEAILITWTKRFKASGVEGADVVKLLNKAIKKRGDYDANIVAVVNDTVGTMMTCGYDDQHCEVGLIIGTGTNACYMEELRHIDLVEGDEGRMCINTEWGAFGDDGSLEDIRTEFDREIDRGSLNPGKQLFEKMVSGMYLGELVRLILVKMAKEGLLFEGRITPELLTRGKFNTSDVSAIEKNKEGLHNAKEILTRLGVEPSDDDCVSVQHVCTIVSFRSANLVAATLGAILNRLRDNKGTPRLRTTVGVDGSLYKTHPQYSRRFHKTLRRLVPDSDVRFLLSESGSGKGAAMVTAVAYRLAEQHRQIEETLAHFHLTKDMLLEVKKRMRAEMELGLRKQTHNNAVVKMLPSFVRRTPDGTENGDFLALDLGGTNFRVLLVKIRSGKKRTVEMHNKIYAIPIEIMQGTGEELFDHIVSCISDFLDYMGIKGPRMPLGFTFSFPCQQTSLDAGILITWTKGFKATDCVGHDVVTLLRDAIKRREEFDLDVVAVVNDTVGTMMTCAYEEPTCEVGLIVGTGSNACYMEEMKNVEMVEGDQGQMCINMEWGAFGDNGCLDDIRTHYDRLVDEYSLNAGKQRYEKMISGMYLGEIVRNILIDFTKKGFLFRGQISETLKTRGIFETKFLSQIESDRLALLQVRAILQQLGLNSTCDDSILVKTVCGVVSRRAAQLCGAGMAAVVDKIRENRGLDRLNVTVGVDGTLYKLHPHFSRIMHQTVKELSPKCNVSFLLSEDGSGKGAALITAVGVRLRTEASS

[1] = system: Streptococcus sp. 'group A'; experiment: Streptococcus pyogenes SK(-)GAS viability under kanamycin – luminescence, BacTiterGlo, confirmation, counter-screen for streptokinase expression inhibitor project, dose response (AID 1900); type: functional, organism-based
Vero [2] = experiment: cells; type: functional; conditions: Chlorocebus sabaeus
BJ [3] = experiment: BJ-TERT fibroblast viability loss – cell-based, RAS-independent, luminescence, dose response (AID 1933); type: functional; conditions: Homo sapiens
INS1 = experiment: INS-1E survival protection against cytokine death – cell-based, luminescence, retest, dose response (AID 449756); type: functional; conditions: Rattus norvegicus;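 note: cell death triggered by IL-1 beta plus TNF-alpha plus IFN-gamma mixture; protective hits raise ATP signal compared with cytokine alone wells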
Streptococcus = experiment: GAS UMAA2166 growth inhibition – luminescence, BacTiterGlo, counter-screen for streptokinase expression inhibitor project, dose response (AID 1915); type: functional, organism-based;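 note: potency for reduction of bacterial viability or growth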
Vero [4] = experiment: cells; type: functional, cell-based; conditions: Chlorocebus sabaeus
[5] = reduction of Shn3 3'UTR-driven luciferase in osteoblasts – cell-based, Clone20 osteoblasts, firefly luciferase, cherry-picked, dose response (AID 624132); type: functional;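 note: firefly luciferase luminescence from reporter carrying the Shn3 3'UTR in osteoblasts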
[6] = target: Heat shock protein HSP 90-alpha (Homo sapiens, UniProt P07900); type: functional, organism-based
cells [7] = type: functional, cell-based
Cytochrome P450 1A2 = target: T2, Cytochrome P450 1A2 (Homo sapiens, UniProt P05177);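 note: PubChem cytochrome P450 panel assay, CYP1A2 panel member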
T2 sequence (P05177 whole entry): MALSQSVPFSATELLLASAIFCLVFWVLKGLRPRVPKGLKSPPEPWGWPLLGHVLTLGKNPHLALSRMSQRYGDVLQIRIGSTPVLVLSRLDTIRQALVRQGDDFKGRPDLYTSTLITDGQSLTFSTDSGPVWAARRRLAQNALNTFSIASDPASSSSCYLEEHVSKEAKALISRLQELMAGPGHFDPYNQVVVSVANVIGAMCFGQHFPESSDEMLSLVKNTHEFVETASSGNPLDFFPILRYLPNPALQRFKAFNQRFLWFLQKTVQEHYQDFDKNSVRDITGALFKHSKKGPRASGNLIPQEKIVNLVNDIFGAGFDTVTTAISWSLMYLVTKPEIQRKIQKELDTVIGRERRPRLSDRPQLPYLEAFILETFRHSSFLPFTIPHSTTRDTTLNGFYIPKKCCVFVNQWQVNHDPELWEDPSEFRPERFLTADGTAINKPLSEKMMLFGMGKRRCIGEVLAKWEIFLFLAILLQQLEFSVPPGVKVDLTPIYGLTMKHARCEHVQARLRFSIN

[8] = target: Serine/threonine-protein phosphatase (Candida dubliniensis (strain CD36 / CBS 7987 / NCPF 3949 / NRRLY-17841) (Yeast), UniProt B9W6M3); experiment: blockers of CaCl2-induced CDRE-lacZ signaling – S. cerevisiae, luminescence, secondary, dose response (AID 2388); type: functional, cell-based;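 note: yeast reporter cells carrying a calcineurin-responsive lacZ construct stimulated with calcium chloride; luminescent beta-galactosidase reporter signal in whole cells rather than isolated phosphatase activity; potency for inhibition where a drop in reporter signal means calcineurin blockade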
Chain of Serine/threonine-protein phosphatase (B9W6M3 whole entry): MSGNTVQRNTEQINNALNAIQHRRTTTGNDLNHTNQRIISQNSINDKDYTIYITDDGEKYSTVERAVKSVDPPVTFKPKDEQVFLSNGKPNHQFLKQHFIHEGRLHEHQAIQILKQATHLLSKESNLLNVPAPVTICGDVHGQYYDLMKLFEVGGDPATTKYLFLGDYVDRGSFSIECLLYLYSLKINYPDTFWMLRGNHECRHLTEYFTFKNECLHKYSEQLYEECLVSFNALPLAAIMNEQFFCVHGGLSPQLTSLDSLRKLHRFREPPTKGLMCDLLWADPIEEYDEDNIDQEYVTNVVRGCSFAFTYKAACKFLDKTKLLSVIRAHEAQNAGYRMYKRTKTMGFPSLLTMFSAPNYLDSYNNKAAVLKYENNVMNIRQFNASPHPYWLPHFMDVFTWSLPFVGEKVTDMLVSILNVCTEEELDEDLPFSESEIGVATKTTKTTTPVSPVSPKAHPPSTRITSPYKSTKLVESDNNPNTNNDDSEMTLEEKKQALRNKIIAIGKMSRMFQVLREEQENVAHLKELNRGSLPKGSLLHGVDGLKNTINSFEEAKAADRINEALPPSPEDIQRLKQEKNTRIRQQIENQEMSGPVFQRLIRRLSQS

[9] = DRD fibroblast viability loss – cell-based, non-viral oncogenic, luminescence, dose response (AID 1934); type: functional; conditions: Homo sapiens
cells [10] = type: functional, cell-based; remark: listed apart in the source
[11] = fluconazole-exposed Candida albicans growth modulators – fluorescence, retest, confirmation (AID 2467); type: functional, cell-based
[12] = NIH-3T3 fibroblast cytotoxicity, dose response, cytotoxicity control, cell-based, fluorescence, Alamar Blue, secondary assay (AID 2327); type: functional;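 note: NIH-3T3 mouse fibroblasts cultured with fluconazole at 8 µg/mL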
Cytochrome P450 2C19 = Cytochrome P450 2C19 (Homo sapiens, UniProt P33261); experiment: Cytochrome panel assay with activity outcomes. Panel member name: p450-cyp2c19 Compounds with AC50 equal or less than 10 uM are considered active; type: functional; conditions: read-out: AC50
Chain of Cytochrome P450 2C19 (P33261 whole entry): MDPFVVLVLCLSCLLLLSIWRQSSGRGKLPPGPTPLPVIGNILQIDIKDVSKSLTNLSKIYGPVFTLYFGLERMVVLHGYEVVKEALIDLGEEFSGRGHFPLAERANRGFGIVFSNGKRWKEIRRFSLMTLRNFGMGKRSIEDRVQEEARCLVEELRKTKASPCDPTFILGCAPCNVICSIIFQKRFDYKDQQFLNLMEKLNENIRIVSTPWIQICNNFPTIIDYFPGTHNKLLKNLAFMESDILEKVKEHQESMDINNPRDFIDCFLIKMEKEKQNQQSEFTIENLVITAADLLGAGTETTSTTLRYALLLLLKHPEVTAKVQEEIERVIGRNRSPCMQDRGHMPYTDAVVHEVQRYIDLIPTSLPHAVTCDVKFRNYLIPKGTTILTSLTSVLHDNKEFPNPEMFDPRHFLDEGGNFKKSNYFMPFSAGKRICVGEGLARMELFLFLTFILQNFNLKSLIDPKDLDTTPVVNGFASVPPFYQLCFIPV

BJ [13] = experiment: cells; type: functional, cell-based; conditions: Homo sapiens
BJ [14] = experiment: BJ-TERT-LT-ST fibroblast viability loss – cell-based, RAS-independent, luminescence, dose response (AID 1935); type: functional; conditions: Homo sapiens;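 note: BJ fibroblasts immortalized with TERT plus LT and ST oncogenes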
[15] = target: ATP-dependent molecular chaperone HSP82 (Candida albicans (strain WO-1) (Yeast), UniProt C4YTQ8); experiment: steroid-induced GRE reporter decrease in yeast – S. cerevisiae, luminescence, Hsp90 inhibitor project, dose response (AID 2400); type: functional, cell-based;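 note: beta-galactosidase luminescence from glucocorticoid response element reporter as proxy for Hsp90 function; inhibitor potency where signal loss means Hsp90 inhibition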
Chain of ATP-dependent molecular chaperone HSP82 (C4YTQ8 whole entry): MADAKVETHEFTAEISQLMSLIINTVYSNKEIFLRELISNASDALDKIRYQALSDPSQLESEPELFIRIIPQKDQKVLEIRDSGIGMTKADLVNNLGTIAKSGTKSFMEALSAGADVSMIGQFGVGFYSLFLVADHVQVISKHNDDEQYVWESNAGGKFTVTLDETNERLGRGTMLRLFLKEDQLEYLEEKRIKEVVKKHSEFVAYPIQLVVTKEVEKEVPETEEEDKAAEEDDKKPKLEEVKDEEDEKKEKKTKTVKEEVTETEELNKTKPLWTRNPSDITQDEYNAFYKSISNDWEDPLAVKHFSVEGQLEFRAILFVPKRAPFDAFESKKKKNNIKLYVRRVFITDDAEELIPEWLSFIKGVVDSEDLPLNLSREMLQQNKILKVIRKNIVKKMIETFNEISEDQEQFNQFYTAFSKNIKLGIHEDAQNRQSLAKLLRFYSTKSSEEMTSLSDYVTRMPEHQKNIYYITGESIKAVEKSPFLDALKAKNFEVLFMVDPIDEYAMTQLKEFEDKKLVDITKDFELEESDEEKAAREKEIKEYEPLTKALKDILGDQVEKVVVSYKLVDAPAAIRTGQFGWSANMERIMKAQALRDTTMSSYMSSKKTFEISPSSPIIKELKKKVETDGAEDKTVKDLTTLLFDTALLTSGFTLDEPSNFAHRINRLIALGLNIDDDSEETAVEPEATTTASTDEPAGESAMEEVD

[16] = non-specific 3'UTR reporter inhibition in Clone20-Shn3RL – cell-based, Renilla luciferase, cherry-picked, counter-screen for Shn3 inhibitor project, dose response (AID 624133); type: functional
Cytochrome P450 2D6 = Cytochrome P450 2D6 (Homo sapiens, UniProt P10635);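 note: CYP2D6 member of a cytochrome P450 panel assay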
Chain of Cytochrome P450 2D6 (P10635 whole entry): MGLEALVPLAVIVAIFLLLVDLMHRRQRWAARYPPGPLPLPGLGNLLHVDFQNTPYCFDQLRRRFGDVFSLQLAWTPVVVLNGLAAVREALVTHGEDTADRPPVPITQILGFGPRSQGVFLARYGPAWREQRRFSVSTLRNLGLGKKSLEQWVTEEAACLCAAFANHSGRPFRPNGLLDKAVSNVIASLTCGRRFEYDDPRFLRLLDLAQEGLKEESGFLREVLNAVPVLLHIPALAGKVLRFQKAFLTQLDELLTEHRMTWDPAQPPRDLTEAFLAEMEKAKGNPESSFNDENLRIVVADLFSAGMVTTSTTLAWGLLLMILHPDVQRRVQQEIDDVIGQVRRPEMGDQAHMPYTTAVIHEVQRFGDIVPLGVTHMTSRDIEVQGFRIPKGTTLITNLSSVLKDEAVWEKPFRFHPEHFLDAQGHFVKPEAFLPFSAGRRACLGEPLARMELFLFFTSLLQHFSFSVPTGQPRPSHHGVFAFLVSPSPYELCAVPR

[17] = target: T3, Beta-2 adrenergic receptor (Homo sapiens, UniProt P07550); experiment: Dose response for HTS for Beta-2AR agonists via FAP method from Powderset3.; type: functional
T3 sequence (P07550 whole entry): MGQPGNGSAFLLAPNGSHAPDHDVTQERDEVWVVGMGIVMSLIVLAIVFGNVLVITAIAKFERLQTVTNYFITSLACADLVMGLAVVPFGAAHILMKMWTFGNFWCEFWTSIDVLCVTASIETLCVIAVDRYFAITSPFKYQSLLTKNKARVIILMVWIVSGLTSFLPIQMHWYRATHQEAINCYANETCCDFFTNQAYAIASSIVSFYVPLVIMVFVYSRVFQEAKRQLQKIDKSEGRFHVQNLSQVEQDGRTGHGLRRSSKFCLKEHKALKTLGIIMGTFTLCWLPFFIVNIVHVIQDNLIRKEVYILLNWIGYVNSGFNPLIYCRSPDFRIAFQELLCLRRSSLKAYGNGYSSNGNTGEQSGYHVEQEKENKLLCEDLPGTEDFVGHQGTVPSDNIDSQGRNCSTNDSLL

[18] = target: T3, Beta-2 adrenergic receptor; experiment: ADRB2 activation measured by internalization – cell-based, FAP fluorogen, flow cytometry, cherry pick 1, dose response (AID 588763); type: functional
Escherichia coli = experiment: microbe, parasite or virus in culture
[19] = target: T4, Heat shock factor protein 1 (Mus musculus, UniProt P38532); experiment: decrease of HSF1-responsive luciferase luminescence – cell-based, NIH3T3, dose retest, confirmation (AID 2382); type: functional;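 note: NIH3T3 fibroblasts with HSF1-driven luciferase reporter stressed by proteasome inhibitor MG132; luminescence from HSF1-driven luciferase expression after 8 hours of MG132 stress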
T4 sequence (P38532 whole entry): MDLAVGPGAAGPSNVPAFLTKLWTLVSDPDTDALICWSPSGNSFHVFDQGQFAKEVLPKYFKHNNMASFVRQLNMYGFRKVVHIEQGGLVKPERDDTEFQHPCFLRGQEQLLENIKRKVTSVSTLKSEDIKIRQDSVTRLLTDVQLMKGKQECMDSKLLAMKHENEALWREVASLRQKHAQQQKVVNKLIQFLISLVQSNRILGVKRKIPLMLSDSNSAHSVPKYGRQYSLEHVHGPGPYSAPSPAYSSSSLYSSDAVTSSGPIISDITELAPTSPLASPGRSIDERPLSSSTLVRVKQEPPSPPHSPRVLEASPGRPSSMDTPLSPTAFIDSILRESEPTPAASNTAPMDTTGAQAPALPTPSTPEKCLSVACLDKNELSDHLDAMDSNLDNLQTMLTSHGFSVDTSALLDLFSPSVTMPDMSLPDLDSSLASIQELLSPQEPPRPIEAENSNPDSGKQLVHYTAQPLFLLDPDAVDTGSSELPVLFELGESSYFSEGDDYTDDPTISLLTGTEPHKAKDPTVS

In the case of O=c1c2ccccc2nc(/C=C/c2ccncc2)n1-c1ccccc1, the IC50 (Hexokinase HKDC1) is reported as > 80 µM (inactive) and the IC50 (Hexokinase-1) is reported as > 80 µM (inactive).

For Oc1c(CN2CCN(c3ccccc3)CC2)cc(Br)c2cccnc12, the EC50 [1] was 1.47 µM (active), the CC50 (Vero [2]) was 3.51 µM (active) and the EC50 (BJ [3]) was 5.2 µM (active). For the same molecule, the AC50 (INS1) was 2.42 µM (active), the EC50 (Streptococcus) was 2.95 µM (active) and the IC50 (Vero [4]) was > 12.5 µM (active). For the same molecule, the AC50 [5] was 1.92 µM (active), the AC50 [6] was 4.59 µM (active) and the EC50 (cells [7]) was > 350 µM (not active). For the same molecule, the AC50 (Cytochrome P450 1A2) was 1.26 µM (inconclusive), the EC50 [8] was > 180 µM (inactive) and the EC50 [9] was 14 µM (active). The EC50 (cells [10]) was 62.6 µM (active), the EC50 [11] was 0.656 µM (active) and the EC50 [12] was > 160 µM (inconclusive). For the same molecule, the AC50 (Cytochrome P450 2C19) was 3.98 µM (inconclusive), the EC50 (BJ [13]) was 12.7 µM (inconclusive) and the EC50 (BJ [14]) was 8.16 µM (inconclusive). The EC50 [15] was 21.3 µM (active), the AC50 [16] was 1.84 µM (active) and the AC50 (Cytochrome P450 2D6) was 3.98 µM (inconclusive).

In the case of CC(Oc1ccc(Cl)cc1Cl)c1nc(-c2ccc(NC(=O)c3ccccn3)cc2)no1 (configuration not stated), the EC50 [17] is reported as 0.0883 µM (active) and the EC50 [18] is reported as 0.973 µM (active).

In the case of CCn1ccnc1CN(C)C(=O)c1cc(COc2ccc(Cl)cc2OC)on1, the AC50 (Escherichia coli) is reported as 160 µM (active) and the EC50 [19] is reported as > 195 µM (not active).
